Test results from patent US20100056570A1, “FUNGICIDES” (Syngenta Crop Protection, Inc., priority 2006, published 2010).

melting point	SMILES
172 to 174 °C	CSC(Oc1cc2cc(Br)cnc2cc1Cl)C(=O)NC(C)(C)C (stereo not drawn) [12 (2), 2-(3-Bromo-7-chloro-quinolin-6-yloxy)-N-tert-butyl-2-methylsulfanyl-acetamide]
144 to 145 °C	CSC(Oc1cc2cc(Br)cnc2cc1F)C(=O)NC(C)(C)C (stereo not drawn) [12 (6), 2-(3-Bromo-7-fluoro-quinolin-6-yloxy)-N-tert-butyl-2-methylsulfanyl-acetamide]
165 to 166 °C	CSC(Oc1cc2cc(I)cnc2cc1F)C(=O)NC(C)(C)C (stereo not drawn) [12 (7), 2-(3-iodo-7-fluoro-quinolin-6-yloxy)-N-tert-butyl-2-methylsulfanyl-acetamide]
132 to 134 °C	CSC(Oc1cc2cc(Br)cnc2cc1C)C(=O)NC(C)(C)C (stereo not drawn) [12 (13), 2-(3-Bromo-7-methyl-quinolin-6-yloxy)-N-tert-butyl-2-methylsulfanyl-acetamide]
170 to 173 °C	CSC(Oc1cc2cc(-c3ccsc3)cnc2cc1F)C(=O)NC(C)(C)C (stereo not drawn) [12 (30), N-tert-butyl-2-(7-fluoro-3-thiophen-3-yl-quinolin-6-yloxy)-2-methylsulfanyl-acetamide]
132 to 134 °C	COCC#CC(C)(C)NC(=O)C(C)(S)Oc1cc2cc(-c3ccsc3)cnc2cc1F (stereo not drawn) [251 (30), 2-(7-Fluoro-3-thiophen-3-yl-quinolin-6-yloxy)-N-(4-methoxy-1,1-dimethyl-but-2-ynyl)-2-methyl-sulfanyl-acetamide]
